# Assay results from publication PMC5218480 (PLoS ONE, 2017).
# Test system: MV-4-11 cells
# Test: Gene expression microarray analysis (Affymetrix PrimeView) and GSEA
# Type: cell-based, human
# Design: RFU PODN (11730768_x_at) / Fold change /veh PODN (11730768_x_at) / RFU LINC00158 (11744669_a_at) / Fold change /veh LINC00158 (11744669_a_at) / RFU DUSP10 (11751237_a_at) / Fold change /veh DUSP10 (11751237_a_at) / RFU ID3 (11757404_x_at) / Fold change /veh ID3 (11757404_x_at) / RFU PLEKHG5 (11737974_s_at) / Fold change /veh PLEKHG5 (11737974_s_at) / RFU LRRC4B (11730491_at) / Fold change /veh LRRC4B (11730491_at) / RFU GIMAP4 (11747438_a_at) / Fold change /veh GIMAP4 (11747438_a_at) / RFU KRT8 (11758183_x_at) / Fold change /veh KRT8 (11758183_x_at) / RFU CNN1 (11734310_a_at) / Fold change /veh CNN1 (11734310_a_at) / RFU VPS37D (11726825_at) / Fold change /veh VPS37D (11726825_at) / RFU C10orf10 (11716522_x_at) / Fold change /veh C10orf10 (11716522_x_at) / RFU KIR2DL2 /// KIR2DL4 /// KIR2DL5A /// KIR2DL5B /// KIR2DS1 /// KIR2DS2 /// KIR2DS3 /// KIR2DS4 /// KIR3DL3 /// KIR3DL3 /// KIR3DS1 (11738374_at) / Fold change /veh KIR2DL2 /// KIR2DL4 /// KIR2DL5A /// KIR2DL5B /// KIR2DS1 /// KIR2DS2 /// KIR2DS3 /// KIR2DS4 /// KIR3DL3 /// KIR3DL3 /// KIR3DS1 (11738374_at) / RFU C1QL1 (11718748_at) / Fold change /veh C1QL1 (11718748_at) / RFU TMPRSS4 (11747572_a_at) / Fold change /veh TMPRSS4 (11747572_a_at) / RFU HAMP (11756126_x_at) / Fold change /veh HAMP (11756126_x_at) / RFU RNFT2 (11725882_a_at) / Fold change /veh RNFT2 (11725882_a_at) / RFU NR4A2 (11747474_a_at) / Fold change /veh NR4A2 (11747474_a_at) / RFU ABCC12 (11746883_a_at) / Fold change /veh ABCC12 (11746883_a_at) / RFU TMEM136 (11760407_x_at) / Fold change /veh TMEM136 (11760407_x_at) / RFU CLDN22 /// WWC2 (11732394_at) / Fold change /veh CLDN22 /// WWC2 (11732394_at) / RFU HLA-DPB1 (11760878_x_at) / Fold change /veh HLA-DPB1 (11760878_x_at) / RFU SPINT1 (11716480_a_at) / Fold change /veh SPINT1 (11716480_a_at) / RFU GAP43 (11754022_s_at) / Fold change /veh GAP43 (11754022_s_at) / RFU A4GNT (11735810_at) / Fold change /veh A4GNT (11735810_at) / RFU PRB3 (11715151_x_at) / Fold change /veh PRB3 (11715151_x_at) / RFU TUBB4B (11761932_at) / Fold change /veh TUBB4B (11761932_at) / RFU CAPN14 (11732068_a_at) / Fold change /veh CAPN14 (11732068_a_at) / RFU TMCC2 (11721928_a_at) / Fold change /veh TMCC2 (11721928_a_at) / RFU IRGQ (11745062_a_at) / Fold change /veh IRGQ (11745062_a_at) / RFU FAM174B (11720279_a_at) / Fold change /veh FAM174B (11720279_a_at) / RFU TMPRSS4 (11748680_a_at) / Fold change /veh TMPRSS4 (11748680_a_at) / RFU FAM212B (11763350_a_at) / Fold change /veh FAM212B (11763350_a_at) / RFU PLEKHG5 (11743358_a_at) / Fold change /veh PLEKHG5 (11743358_a_at) / RFU ZSCAN30 (11745921_a_at) / Fold change /veh ZSCAN30 (11745921_a_at) / RFU CMKLR1 (11741424_a_at) / Fold change /veh CMKLR1 (11741424_a_at) / RFU LOC101060620 /// MAPK8IP1 (11723275_at) / Fold change /veh LOC101060620 /// MAPK8IP1 (11723275_at) / RFU SPTSSB (11747773_x_at) / Fold change /veh SPTSSB (11747773_x_at) / RFU PRSS12 (11739890_at) / Fold change /veh PRSS12 (11739890_at) / RFU BIN1 (11741810_x_at) / Fold change /veh BIN1 (11741810_x_at) / RFU WNT11 (11732464_a_at) / Fold change /veh WNT11 (11732464_a_at) / RFU C10orf10 (11716521_a_at) / Fold change /veh C10orf10 (11716521_a_at) / RFU C5orf56 (11738089_at) / Fold change /veh C5orf56 (11738089_at) / RFU CYB561 (11721691_x_at) / Fold change /veh CYB561 (11721691_x_at) / RFU ANKRD19P (11752326_a_at) / Fold change /veh ANKRD19P (11752326_a_at) / RFU OR2T12 /// OR2T33 /// OR2T8 (11738714_s_at) / Fold change /veh OR2T12 /// OR2T33 /// OR2T8 (11738714_s_at) / RFU VCAN (11748164_a_at) / Fold change /veh VCAN (11748164_a_at) / RFU JSRP1 (11732532_at) / Fold change /veh JSRP1 (11732532_at) / RFU KRTAP10-11 (11738290_x_at) / Fold change /veh KRTAP10-11 (11738290_x_at) / RFU MYO3A (11730013_a_at) / Fold change /veh MYO3A (11730013_a_at) / RFU EBF3 (11725865_a_at) / Fold change /veh EBF3 (11725865_a_at) / RFU CAMK2N1 (11719241_x_at) / Fold change /veh CAMK2N1 (11719241_x_at) / RFU C5orf56 (11738088_a_at) / Fold change /veh C5orf56 (11738088_a_at) / RFU OLFML3 (11715873_a_at) / Fold change /veh OLFML3 (11715873_a_at) / RFU LOC100653217 /// NTM (11731650_a_at) / Fold change /veh LOC100653217 /// NTM (11731650_a_at) / RFU MAPK11 (11762145_a_at) / Fold change /veh MAPK11 (11762145_a_at) / RFU FIZ1 (11724087_x_at) / Fold change /veh FIZ1 (11724087_x_at) / RFU OASL (11726364_x_at) / Fold change /veh OASL (11726364_x_at) / RFU SOX15 (11748057_x_at) / Fold change /veh SOX15 (11748057_x_at) / RFU CD79A (11719716_a_at) / Fold change /veh CD79A (11719716_a_at) / RFU HIST1H1D (11736915_at) / Fold change /veh HIST1H1D (11736915_at) / RFU CASKIN2 (11723855_a_at) / Fold change /veh CASKIN2 (11723855_a_at) / RFU LOC730098 (11760151_x_at) / Fold change /veh LOC730098 (11760151_x_at) / RFU OR4N2 (11742367_at) / Fold change /veh OR4N2 (11742367_at) / RFU PRRT2 (11749266_a_at) / Fold change /veh PRRT2 (11749266_a_at) / RFU SNX32 (11753110_a_at) / Fold change /veh SNX32 (11753110_a_at) / RFU CDHR5 (11726645_a_at) / Fold change /veh CDHR5 (11726645_a_at) / RFU RCAN1 (11760418_a_at) / Fold change /veh RCAN1 (11760418_a_at) / RFU FAM167A (11723789_a_at) / Fold change /veh FAM167A (11723789_a_at) / RFU FAM26E (11764081_at) / Fold change /veh FAM26E (11764081_at) / RFU ISYNA1 (11749810_s_at) / Fold change /veh ISYNA1 (11749810_s_at) / RFU ACY1 (11761880_at) / Fold change /veh ACY1 (11761880_at) / RFU 11764098_at / Fold change /veh 11764098_at / RFU SAMD14 (11745864_x_at) / Fold change /veh SAMD14 (11745864_x_at) / RFU NPB (11741838_a_at) / Fold change /veh NPB (11741838_a_at) / RFU TMPRSS6 (11731388_a_at) / Fold change /veh TMPRSS6 (11731388_a_at) / RFU KRTAP10-2 (11738614_at) / Fold change /veh KRTAP10-2 (11738614_at) / RFU ARHGAP8 /// PRR5-ARHGAP8 (11727945_x_at) / Fold change /veh ARHGAP8 /// PRR5-ARHGAP8 (11727945_x_at) / RFU KRTAP5-7 /// NADSYN1 (11734609_at) / Fold change /veh KRTAP5-7 /// NADSYN1 (11734609_at) / RFU RASL12 (11751679_a_at) / Fold change /veh RASL12 (11751679_a_at) / RFU CDKN2B (11736163_a_at) / Fold change /veh CDKN2B (11736163_a_at) / RFU PRF1 (11729649_at) / Fold change /veh PRF1 (11729649_at) / RFU, ZNF638 /// ZNF638-IT1 / Fold change vs veh, ZNF638 /// ZNF638-IT1 / RFU, PANK3 / Fold change vs veh, PANK3 / RFU, SH3YL1 / Fold change vs veh, SH3YL1 / RFU, ZEB2 / Fold change vs veh, ZEB2 / RFU, NRIP1 / Fold change vs veh, NRIP1 / RFU, PTTG1IP / Fold change vs veh, PTTG1IP / RFU, CAPN2 / Fold change vs veh, CAPN2 / RFU, MED14 / Fold change vs veh, MED14 / RFU, SNORA58 / Fold change vs veh, SNORA58 / RFU, C1orf63 / Fold change vs veh, C1orf63 / RFU, LRRFIP1 / Fold change vs veh, LRRFIP1 / RFU, NDUFAF7 / Fold change vs veh, NDUFAF7 / RFU, SLC12A2 / Fold change vs veh, SLC12A2 / RFU, IBTK / Fold change vs veh, IBTK / RFU, ESF1 / Fold change vs veh, ESF1 / Fold change vs veh, TMEM50B / RFU, TAOK1 / Fold change vs veh, TAOK1 / RFU, ACBD3 / Fold change vs veh, ACBD3 / RFU, TMA16 / Fold change vs veh, TMA16 / RFU, RWDD3 / Fold change vs veh, RWDD3 / RFU, BCAT1 / Fold change vs veh, BCAT1 / RFU, EDEM3 / Fold change vs veh, EDEM3 / RFU, TMEM33 / Fold change vs veh, TMEM33 / RFU, WDR75 / Fold change vs veh, WDR75 / RFU, AHCTF1 / Fold change vs veh, AHCTF1 / RFU, TFRC / Fold change vs veh, TFRC / RFU, ZDHHC17 / Fold change vs veh, ZDHHC17 / RFU, NOM1 / Fold change vs veh, NOM1 / RFU, ARL8B / Fold change vs veh, ARL8B / RFU, ZBTB11 / Fold change vs veh, ZBTB11 / RFU, TAMM41 / Fold change vs veh, TAMM41 / RFU, KIAA1704 /// LOC100996395 / Fold change vs veh, KIAA1704 /// LOC100996395 / RFU, ING1 / Fold change vs veh, ING1 / RFU, TRMT61B / Fold change vs veh, TRMT61B / RFU, FUBP3 / Fold change vs veh, FUBP3 / RFU, TP53 / Fold change vs veh, TP53 / RFU, TNKS2 / Fold change vs veh, TNKS2 / RFU, ZFP14 / Fold change vs veh, ZFP14 / RFU, ACTR2 / Fold change vs veh, ACTR2 / RFU, PPP3R1 / Fold change vs veh, PPP3R1 / RFU, PIK3R1 / Fold change vs veh, PIK3R1 / RFU, HNRNPA1 / Fold change vs veh, HNRNPA1 / RFU, RNF170 / Fold change vs veh, RNF170 / RFU, ZNF28 / Fold change vs veh, ZNF28 / RFU, RNGTT / Fold change vs veh, RNGTT / RFU, OGT / Fold change vs veh, OGT / RFU, BRD1 / Fold change vs veh, BRD1 / RFU, MARS / Fold change vs veh, MARS / RFU, ZNF655 / Fold change vs veh, ZNF655 / RFU, FAHD1 / Fold change vs veh, FAHD1 / RFU, BDP1 / Fold change vs veh, BDP1 / RFU, LRRCC1 / Fold change vs veh, LRRCC1 / RFU, ARID1A / Fold change vs veh, ARID1A / RFU, ZNF146 / Fold change vs veh, ZNF146 / RFU, ZNF330 / Fold change vs veh, ZNF330 / RFU, GPN3 / Fold change vs veh, GPN3 / RFU, C9orf123 / Fold change vs veh, C9orf123 / RFU, N4BP2L2 / Fold change vs veh, N4BP2L2 / RFU, ARFIP1 / Fold change vs veh, ARFIP1 / RFU, FAM179B / Fold change vs veh, FAM179B / RFU, BCL10 / Fold change vs veh, BCL10 / RFU, UHRF1BP1L / Fold change vs veh, UHRF1BP1L / RFU, BET1 / Fold change vs veh, BET1 / RFU, CNOT2 / Fold change vs veh, CNOT2 / RFU, ZNF268 / Fold change vs veh, ZNF268 / Fold change vs veh, ZNF507 / RFU, DGCR2 / Fold change vs veh, DGCR2 / RFU, WDSUB1 / Fold change vs veh, WDSUB1 / Fold change vs veh, HSP90B1 /// MIR3652 / RFU, ADSS / Fold change vs veh, ADSS / RFU, GK / Fold change vs veh, GK / RFU, ZNF148 / Fold change vs veh, ZNF148 / RFU, TAF9 / Fold change vs veh, TAF9 / RFU, SLC1A5 / Fold change vs veh, SLC1A5 / RFU, SLMO2 / Fold change vs veh, SLMO2 / RFU, ABCC4 / Fold change vs veh, ABCC4 / RFU, LOC101060439 /// RAP1B / Fold change vs veh, LOC101060439 /// RAP1B / RFU, RFX7 / Fold change vs veh, RFX7 / RFU, GTPBP10 / Fold change vs veh, GTPBP10 / RFU, CNEP1R1 / Fold change vs veh, CNEP1R1 / RFU, BIVM-ERCC5 /// ERCC5 / Fold change vs veh, BIVM-ERCC5 /// ERCC5 / RFU, ILF3 / Fold change vs veh, ILF3 / RFU 11762660_at / Fold change /veh 11762660_at / RFU VCAN (11757783_s_at) / Fold change /veh VCAN (11757783_s_at) / RFU DDX43 (11728927_at) / Fold change /veh DDX43 (11728927_at) / RFU KRT8 (11758188_x_at) / Fold change /veh KRT8 (11758188_x_at) / RFU NKD1 (11759106_at) / Fold change /veh NKD1 (11759106_at) / RFU SRD5A1 (11742802_a_at) / Fold change /veh SRD5A1 (11742802_a_at) / RFU TPSAB1 /// TPSB2 (11721975_s_at) / Fold change /veh TPSAB1 /// TPSB2 (11721975_s_at) / RFU GSTM3 (11746129_a_at) / Fold change /veh GSTM3 (11746129_a_at) / RFU IL23R (11737362_x_at) / Fold change /veh IL23R (11737362_x_at) / RFU TMEM51 (11727254_a_at) / Fold change /veh TMEM51 (11727254_a_at) / RFU PIWIL2 (11732686_x_at) / Fold change /veh PIWIL2 (11732686_x_at) / RFU ORM1 (11744905_x_at) / Fold change /veh ORM1 (11744905_x_at) / RFU CCDC152 (11743942_at) / Fold change /veh CCDC152 (11743942_at) / RFU ECM1 (11717891_a_at) / Fold change /veh ECM1 (11717891_a_at) / RFU IL23R (11748794_a_at) / Fold change /veh IL23R (11748794_a_at) / RFU TNFAIP8L3 (11732012_x_at) / Fold change /veh TNFAIP8L3 (11732012_x_at) / RFU MBOAT4 (11741988_at) / Fold change /veh MBOAT4 (11741988_at) / RFU 11764193_at / Fold change /veh 11764193_at / RFU TMEM53 (11763286_at) / Fold change /veh TMEM53 (11763286_at) / RFU MAGEB2 (11727129_at) / Fold change /veh MAGEB2 (11727129_at) / RFU TMEM200A (11744735_a_at) / Fold change /veh TMEM200A (11744735_a_at) / RFU CCDC152 (11751479_a_at) / Fold change /veh CCDC152 (11751479_a_at) / RFU FAM211A (11726209_a_at) / Fold change /veh FAM211A (11726209_a_at) / RFU RGS16 (11746705_a_at) / Fold change /veh RGS16 (11746705_a_at) / RFU VCAN (11755009_s_at) / Fold change /veh VCAN (11755009_s_at) / RFU RHOB (11743442_s_at) / Fold change /veh RHOB (11743442_s_at) / RFU RGS16 (11720943_a_at) / Fold change /veh RGS16 (11720943_a_at) / RFU RGS16 (11720944_at) / Fold change /veh RGS16 (11720944_at) / RFU, VPS4B / Fold change vs veh, VPS4B / RFU, CREB1 / Fold change vs veh, CREB1 / RFU, DNAJC13 / Fold change vs veh, DNAJC13 / RFU, GNAQ / Fold change vs veh, GNAQ / RFU, CDK5R1 / Fold change vs veh, CDK5R1 / RFU, ZRANB3 / Fold change vs veh, ZRANB3 / RFU, CUL4A / Fold change vs veh, CUL4A / RFU, CCNY / Fold change vs veh, CCNY / RFU, UFL1 / Fold change vs veh, UFL1 / RFU, COG3 / Fold change vs veh, COG3 / RFU, DIAPH2 / Fold change vs veh, DIAPH2 / RFU, SKA2 / Fold change vs veh, SKA2 / RFU, AFF3 / Fold change vs veh, AFF3 / RFU, LMF1 / Fold change vs veh, LMF1 / RFU, IPO11 / Fold change vs veh, IPO11 / RFU, DFFB / Fold change vs veh, DFFB / RFU, FOXP1 / Fold change vs veh, FOXP1 / RFU, CARD8 / Fold change vs veh, CARD8 / RFU, STRN3 / Fold change vs veh, STRN3 / RFU, ADK / Fold change vs veh, ADK / RFU, RASSF2 / Fold change vs veh, RASSF2 / RFU, WIPF1 / Fold change vs veh, WIPF1 / RFU, LARP1B / Fold change vs veh, LARP1B / RFU, RASA1 / Fold change vs veh, RASA1 / RFU, RB1 / Fold change vs veh, RB1 / RFU, PPFIA1 / Fold change vs veh, PPFIA1 / RFU, MAT2A / Fold change vs veh, MAT2A / RFU, CCT5 / Fold change vs veh, CCT5 / RFU, WDR92 / Fold change vs veh, WDR92 / RFU, CUX1 / Fold change vs veh, CUX1 / RFU, TTC7A / Fold change vs veh, TTC7A / RFU, TMEM135 / Fold change vs veh, TMEM135 / RFU, DEPTOR / Fold change vs veh, DEPTOR / RFU, CPM / Fold change vs veh, CPM / RFU, DNAJB6 / Fold change vs veh, DNAJB6 / RFU, CACNA2D3 / Fold change vs veh, CACNA2D3 / RFU, DTX4 / Fold change vs veh, DTX4 / RFU, TFCP2 / Fold change vs veh, TFCP2 / RFU, GMCL1 /// GMCL1P1 / Fold change vs veh, GMCL1 /// GMCL1P1 / RFU, AEBP2 / Fold change vs veh, AEBP2 / RFU, SNHG1 /// SNORD22 /// SNORD25 /// SNORD26 /// SNORD27 /// SNORD28 /// SNORD29 /// SNORD31 / Fold change vs veh, SNHG1 /// SNORD22 /// SNORD25 /// SNORD26 /// SNORD27 /// SNORD28 /// SNORD29 /// SNORD31 / Fold change (Aza/veh), C12orf56 (ProbeSet 11735607_a_at) / Fold change (ACY-1035/veh), C12orf56 (ProbeSet 11735607_a_at) / Fold change (Aza/veh), FGFR1OP (ProbeSet 11751329_s_at) / Fold change (ACY-1035/veh), FGFR1OP (ProbeSet 11751329_s_at) / Fold change (Aza/veh), VPS36 (ProbeSet 11739960_a_at) / Fold change (ACY-1035/veh), VPS36 (ProbeSet 11739960_a_at) / RFU SYPL1 (11715823_x_at) / Fold change /veh SYPL1 (11715823_x_at) / RFU IGFBP7 (11715501_s_at) / Fold change /veh IGFBP7 (11715501_s_at) / RFU REEP3 (11722064_at) / Fold change /veh REEP3 (11722064_at) / RFU IGLL1 (11728026_x_at) / Fold change /veh IGLL1 (11728026_x_at): dose or concentration left out as unconfirmed
# Conditions: MV-4-11 cells, 48 hours
smiles,measurement,value
Nc1ccc(-c2cccs2)cc1NC(=O)c1ccc2c(c1)cc(C1CC1)n2CCN1CCOCC1 [ACY-1035],Fold change /veh TMPRSS6 (11731388_a_at),1.10
